According to ChEMBL document CHEMBL2396528, “Synthesis of new conjugated coumarin-benzimidazole hybrids and their anticancer activity” (2013):

Columns and labels:
Assay type in all cases: functional
MDA-MB-468 = test: Cytotoxicity against human MDA-MB-468 cells assessed as growth inhibition at 10 uM after 48 hrs by SRB assay relative to control; conditions: MDA-MB-468, 48 h, read-out: GI
T47D = test: Cytotoxicity against human T47D cells assessed as growth inhibition at 10 uM after 48 hrs by SRB assay relative to control; conditions: read-out: GI
MDA-MB-231 = test: Cytotoxicity against human MDA-MB-231 cells assessed as growth inhibition at 10 uM after 48 hrs by SRB assay relative to control; conditions: MDA-MB-231, 48 h, read-out: GI
MCF7 = test: Cytotoxicity against human MCF7 cells assessed as growth inhibition at 10 uM after 48 hrs by SRB assay relative to control; conditions: MCF7, 48 h, read-out: GI
DU-145 = test: Cytotoxicity against human DU145 cells assessed as growth inhibition at 10 uM after 48 hrs by SRB assay relative to control; conditions: DU-145, 48 h, read-out: GI
PC-3 = test: Cytotoxicity against human PC3 cells assessed as growth inhibition at 10 uM after 48 hrs by SRB assay relative to control; conditions: PC-3, 48 h, read-out: GI
SN12C = test: Cytotoxicity against human SN12C cells assessed as growth inhibition at 10 uM after 48 hrs by SRB assay relative to control; conditions: read-out: GI
CAKI-1 = test: Cytotoxicity against human Caki1 cells assessed as growth inhibition at 10 uM after 48 hrs by SRB assay relative to control; conditions: CAKI-1, 48 h, read-out: GI
ACHN = test: Cytotoxicity against human ACHN cells assessed as growth inhibition at 10 uM after 48 hrs by SRB assay relative to control; conditions: read-out: GI
SK-OV-3 = test: Cytotoxicity against human SKOV3 cells assessed as growth inhibition at 10 uM after 48 hrs by SRB assay relative to control; conditions: SK-OV-3, 48 h, read-out: GI
[1] = Cytotoxicity against human NCI-ADR-RES cells assessed as growth inhibition at 10 uM after 48 hrs by SRB assay relative to control; conditions: read-out: GI
OVCAR-8 = test: Cytotoxicity against human OVCAR8 cells assessed as growth inhibition at 10 uM after 48 hrs by SRB assay relative to control; conditions: OVCAR-8, 48 h, read-out: GI
OVCAR-5 = test: Cytotoxicity against human OVCAR5 cells assessed as growth inhibition at 10 uM after 48 hrs by SRB assay relative to control; conditions: OVCAR-5, 48 h, read-out: GI
IGROV-1 = test: Cytotoxicity against human IGROV1 cells assessed as growth inhibition at 10 uM after 48 hrs by SRB assay relative to control; conditions: IGROV-1, 48 h, read-out: GI
OVCAR-3 = test: Cytotoxicity against human OVCAR3 cells assessed as growth inhibition at 10 uM after 48 hrs by SRB assay relative to control; conditions: OVCAR-3, 48 h, read-out: GI
UACC-62 = test: Cytotoxicity against human UACC62 cells assessed as growth inhibition at 10 uM after 48 hrs by SRB assay relative to control; conditions: UACC-62, 48 h, read-out: GI
UACC-257 = test: Cytotoxicity against human UACC257 cells assessed as growth inhibition at 10 uM after 48 hrs by SRB assay relative to control; conditions: UACC-257, 48 h, read-out: GI
SK-MEL-5 = test: Cytotoxicity against human SK-MEL-5 cells assessed as growth inhibition at 10 uM after 48 hrs by SRB assay relative to control; conditions: SK-MEL-5, 48 h, read-out: GI
SK-MEL-28 = test: Cytotoxicity against human SK-MEL-28 cells assessed as growth inhibition at 10 uM after 48 hrs by SRB assay relative to control; conditions: SK-MEL-28, 48 h, read-out: GI
M14 = test: Cytotoxicity against human M14 cells assessed as growth inhibition at 10 uM after 48 hrs by SRB assay relative to control; conditions: M14, 48 h, read-out: GI
SK-MEL-2 = test: Cytotoxicity against human SK-MEL-2 cells assessed as growth inhibition at 10 uM after 48 hrs by SRB assay relative to control; conditions: SK-MEL-2, 48 h, read-out: GI
Malme-3M = test: Cytotoxicity against human MALME-3M cells assessed as growth inhibition at 10 uM after 48 hrs by SRB assay relative to control; conditions: read-out: GI
SNB-75 = test: Cytotoxicity against human SNB75 cells assessed as growth inhibition at 10 uM after 48 hrs by SRB assay relative to control; conditions: SNB-75, 48 h, read-out: GI
SF-295 = test: Cytotoxicity against human SF295 cells assessed as growth inhibition at 10 uM after 48 hrs by SRB assay relative to control; conditions: SF-295, 48 h, read-out: GI
SF-539 = test: Cytotoxicity against human SF539 cells assessed as growth inhibition at 10 uM after 48 hrs by SRB assay relative to control; conditions: SF-539, 48 h, read-out: GI
SF-268 = test: Cytotoxicity against human SF268 cells assessed as growth inhibition at 10 uM after 48 hrs by SRB assay relative to control; conditions: SF-268, 48 h, read-out: GI
KM12 = test: Cytotoxicity against human KM12 cells assessed as growth inhibition at 10 uM after 48 hrs by SRB assay relative to control; conditions: KM12, 48 h, read-out: GI
HCC 2998 = test: Cytotoxicity against human HCC2998 cells assessed as growth inhibition at 10 uM after 48 hrs by SRB assay relative to control; conditions: HCC 2998, 48 h, read-out: GI
NCI-H522 = test: Cytotoxicity against human NCI-H522 cells assessed as growth inhibition at 10 uM after 48 hrs by SRB assay relative to control; conditions: NCI-H522, 48 h, read-out: GI
NCI-H23 = test: Cytotoxicity against human NCI-H23 cells assessed as growth inhibition at 10 uM after 48 hrs by SRB assay relative to control; conditions: NCI-H23, 48 h, read-out: GI
NCI-H226 = test: Cytotoxicity against human NCI-H226 cells assessed as growth inhibition at 10 uM after 48 hrs by SRB assay relative to control; conditions: NCI-H226, 48 h, read-out: GI
HOP-62 = test: Cytotoxicity against human HOP62 cells assessed as growth inhibition at 10 uM after 48 hrs by SRB assay relative to control; conditions: HOP-62, 48 h, read-out: GI
MOLT-4 = test: Cytotoxicity against human MOLT4 cells assessed as growth inhibition at 10 uM after 48 hrs by SRB assay relative to control; conditions: MOLT-4, 48 h, read-out: GI
K562 = test: Cytotoxicity against human K562 cells assessed as growth inhibition at 10 uM after 48 hrs by SRB assay relative to control; conditions: K562, 48 h, read-out: GI

Row | SMILES | inhibition of growth at 10 µM (MDA-MB-468) | inhibition of growth at 10 µM (T47D) | inhibition of growth at 10 µM (MDA-MB-231) | inhibition of growth at 10 µM (MCF7) | inhibition of growth at 10 µM (DU-145) | inhibition of growth at 10 µM (PC-3) | inhibition of growth at 10 µM (SN12C) | inhibition of growth at 10 µM (CAKI-1) | inhibition of growth at 10 µM (ACHN) | inhibition of growth at 10 µM (SK-OV-3) | inhibition of growth at 10 µM [1] | inhibition of growth at 10 µM (OVCAR-8) | inhibition of growth at 10 µM (OVCAR-5) | inhibition of growth at 10 µM (IGROV-1) | inhibition of growth at 10 µM (OVCAR-3) | inhibition of growth at 10 µM (UACC-62) | inhibition of growth at 10 µM (UACC-257) | inhibition of growth at 10 µM (SK-MEL-5) | inhibition of growth at 10 µM (SK-MEL-28) | inhibition of growth at 10 µM (M14) | further results
1 | O=c1oc2cc(Br)ccc2cc1-c1nc2ccccc2[nH]1 | < 20% | 28.4% | 26% | 30% | 23.6% | < 20% | < 20% | < 20% | < 20% | < 20% | < 20% | < 20% | < 20% | < 20% | < 20% | < 20% | < 20% | < 20% | < 20% | < 20% | inhibition of growth at 10 µM (SK-MEL-2): < 20%; inhibition of growth at 10 µM (Malme-3M): < 20%; inhibition of growth at 10 µM (SNB-75): 22.9%; inhibition of growth at 10 µM (SF-295): < 20%; inhibition of growth at 10 µM (SF-539): < 20%; inhibition of growth at 10 µM (SF-268): < 20%; inhibition of growth at 10 µM (KM12): < 20%; inhibition of growth at 10 µM (HCC 2998): < 20%; inhibition of growth at 10 µM (NCI-H522): 20.6%; inhibition of growth at 10 µM (NCI-H23): < 20%; inhibition of growth at 10 µM (NCI-H226): < 20%; inhibition of growth at 10 µM (HOP-62): < 20%; inhibition of growth at 10 µM (MOLT-4): < 20%; inhibition of growth at 10 µM (K562): < 20%
2 | O=c1oc2cc(N3CCOCC3)ccc2cc1-c1nc2ccccc2[nH]1 | < 20% | < 20% | < 20% | 62.1% | < 20% | < 20% | < 20% | < 20% | < 20% | < 20% | < 20% | < 20% | < 20% | < 20% | < 20% | < 20% | < 20% | < 20% | < 20% | < 20% | inhibition of growth at 10 µM (SK-MEL-2): < 20%; inhibition of growth at 10 µM (Malme-3M): < 20%; inhibition of growth at 10 µM (SNB-75): < 20%; inhibition of growth at 10 µM (SF-295): < 20%; inhibition of growth at 10 µM (SF-539): < 20%; inhibition of growth at 10 µM (SF-268): < 20%; inhibition of growth at 10 µM (KM12): < 20%; inhibition of growth at 10 µM (HCC 2998): < 20%; inhibition of growth at 10 µM (NCI-H522): < 20%; inhibition of growth at 10 µM (NCI-H23): < 20%; inhibition of growth at 10 µM (NCI-H226): < 20%; inhibition of growth at 10 µM (HOP-62): < 20%; inhibition of growth at 10 µM (MOLT-4): < 20%; inhibition of growth at 10 µM (K562): < 20%
3 | NCCNc1ccc2cc(-c3nc4ccccc4[nH]3)c(=O)oc2c1 | < 20% | < 20% | 34% | < 20% | < 20% | 20.3% | < 20% | < 20% | < 20% | < 20% | < 20% | < 20% | < 20% | < 20% | < 20% | < 20% | < 20% | < 20% | < 20% | < 20% | inhibition of growth at 10 µM (SK-MEL-2): < 20%; inhibition of growth at 10 µM (Malme-3M): < 20%; inhibition of growth at 10 µM (SNB-75): < 20%; inhibition of growth at 10 µM (SF-295): < 20%; inhibition of growth at 10 µM (SF-539): < 20%; inhibition of growth at 10 µM (SF-268): < 20%; inhibition of growth at 10 µM (KM12): < 20%; inhibition of growth at 10 µM (HCC 2998): < 20%; inhibition of growth at 10 µM (NCI-H522): < 20%; inhibition of growth at 10 µM (NCI-H23): < 20%; inhibition of growth at 10 µM (NCI-H226): < 20%; inhibition of growth at 10 µM (HOP-62): < 20%; inhibition of growth at 10 µM (MOLT-4): < 20%; inhibition of growth at 10 µM (K562): < 20%
4 | O=c1oc2cc(NCCO)ccc2cc1-c1nc2ccccc2[nH]1 | 48.4% | 70.7% | 58.9% | 62.1% | < 20% | 56.7% | 22.4% | 22.4% | < 20% | < 20% | 23.7% | 31.4% | < 20% | 24.5% | 32.8% | 27.2% | 28% | 35.8% | < 20% | 25.4% | inhibition of growth at 10 µM (SK-MEL-2): < 20%; inhibition of growth at 10 µM (Malme-3M): 29.8%; inhibition of growth at 10 µM (SNB-75): < 20%; inhibition of growth at 10 µM (SF-295): 24.5%; inhibition of growth at 10 µM (SF-539): 25.9%; inhibition of growth at 10 µM (SF-268): 26.1%; inhibition of growth at 10 µM (KM12): < 20%; inhibition of growth at 10 µM (HCC 2998): < 20%; inhibition of growth at 10 µM (NCI-H522): 23.7%; inhibition of growth at 10 µM (NCI-H23): 32.9%; inhibition of growth at 10 µM (NCI-H226): 30%; inhibition of growth at 10 µM (HOP-62): 24.8%; inhibition of growth at 10 µM (MOLT-4): 38%; inhibition of growth at 10 µM (K562): 57.3%
